Test results: patent US20030232986A1, “Inhibitors of caspases” (Vertex Pharmaceuticals Incorporated, priority 1998, published 2003)
Where two headings read alike, the source gives them in different places. Where a SMILES comes first, the peptide text is derived from it. [ ]: non-standard residue; d: D form. The star is where a group is joined. 4Abz = Nc1ccc(C(=O)O)cc1; Bz = O=C(c1ccccc1)*

Tests used:
[1] = tested on: Human whole blood, IL-1β production; experiment: Whole blood assay for IL-1β production; assay type: cell-based; settings: LPS-stimulated whole blood, IL-1β by ELISA
Procedure: The whole blood assay is a simple method for measuring the production of IL-1β (or other cytokines) and the activity of potential inhibitors. The complexity of this assay system, with its full complement of lymphoid and inflammatory cell types, spectrum of plasma proteins and red blood cells is an ideal in vitro representation of human in vivo physiologic conditions.
Set incubator or water bath at 30° C. Aliquot 0.25 ml of blood into 1.5 ml eppendorf tubes. Note: be sure to invert the whole blood sample tubes after every two aliquots. Differences in replicates may result if the cells sediment and are not uniformly suspended. Use of a positive displacement pipette will also minimize differences between replicate aliquots.
Prepare drug dilutions in sterile pyrogen-free saline by serial dilution. A dilution series which brackets the apparent Ki for a test compound determined in an ICE inhibition assay is generally used for the primary compound screen. For extremely hydrophobic compounds, prepare compound dilutions in fresh plasma obtained from the same blood donor or in PBS-containing 5% DMSO to enhance solubility.
Add 25 μl test compound dilution or vehicle control and gently mix the sample. Then add 5.0 μl LPS solution (250 ng/ml stocked prepared fresh: 5.0 ng/ml final concentration LPS), and mix again. Incubate the tubes at […] in a water bath for 16-18 hr with occasional mixing. Alternatively, the tubes can be placed in a rotator set at 4 rpm for the same incubation period. This assay should be set up in duplicate or triplicate with the following controls: negative control—no LPS; positive control—no test inhibitor; vehicle control—the highest concentration of DMSO or compound solvent used in the experiment. Additional saline is added to all control tubes to normalize volumes for both control and experimental whole blood test samples.
After the incubation period, whole blood samples are centrifuged for 10 minutes at ^˜2000 rpm in the microfuge, plasma is transferred to a fresh microfuge tube and centrifuged at 1000×g to pellet residual platelets if necessary. Plasma samples may be stored frozen at −70° C. prior to assay for cytokine levels by ELISA.
R & D Systems (614 McKinley Place N.E. Minneapolis, Minn. 55413) Quantikine kits may be used for measurement of IL-1β and TNF-α. The assays are performed according to the manufacture's directions. IL-1β levels of ^˜1-5 ng/ml in positive controls among a range of individuals may be observed. A 1:200 dilution of plasma for all samples is usually sufficient for experiments for ELISA results to fall on the linear range of the ELISA standard curves. It may be necessary to optimize standard dilutions if you observe differences in the whole blood assay. Nerad, J. L. et al., J. Leukocyte Biol., 52, pp. 687-692 (1992).

[2] = tested on: Human Peripheral Blood Mononuclear Cells (PBMC), mature IL-1β; experiment: PBMC cell assay: IL-1β assay with human peripheral blood mononuclear cells; assay type: cell-based; settings: LPS-stimulated human PBMC, mature IL-1β in supernatant by ELISA
Excerpt: IL-1β Assay with a Mixed Population of Human Peripheral Blood Mononuclear Cells (PBMC) or Enriched Adherent Mononuclear Cells
Processing of pre-IL-1β by ICE can be measured in cell culture using a variety of cell sources. Human PBMC obtained from healthy donors provides a mixed population of lymphocyte subtypes and mononuclear cells that produce a spectrum of interleukins and cytokines in response to many classes of physiological stimulators. Adherent mononuclear cells from PBMC provides an enriched source of normal monocytes for selective studies of cytokine production by activated cells.
An initial dilution series of test compound in DMSO or ethanol is prepared, with a subsequent dilution into RPMI-10% FBS media (containing 2 mM L-glutamine, 10 mM HEPES, 50 U and 50 ug/ml pen/strep) respectively to yield drugs at 4× the final test concentration containing 0.4% DMSO or 0.4% ethanol. The final concentration of DMSO is 0.1% for all drug dilutions. A concentration titration which brackets the apparent Ki for a test compound determined in an ICE inhibition assay is generally used for the primary compound screen.
Generally 5-6 compound dilutions are tested and the cellular component of the assay is performed in duplicate, with duplicate ELISA determinations on each cell culture supernatant.
Buffy coat cells isolated from one pint human blood (yielding 40-45 ml final volume plasma plus cells) are diluted with media to 80 ml and LeukoPREP separation tubes (Becton Dickinson) are each overlaid with 10 ml of cell suspension. After 15 min centrifugation at 1500-1800×g, the plasma/media layer is aspirated and then the mononuclear cell layer is collected with a Pasteur pipette and transferred to a 15 ml conical centrifuge tube (Corning). Media is added to bring the volume to 15 ml, gently mix the cells by inversion and centrifuge at 300×g for 15 min. The PBMC pellet is resuspended in a small volume of media, the cells are counted and adjusted to 6×10^6 cells/ml.
For the cellular assay, 1.0 ml of the cell suspension is added to each well of a 24-well flat bottom tissue culture plate (Corning), 0.5 ml test compound dilution and 0.5 ml LPS solution (Sigma #L-3012; 20 ng/ml solution prepared in complete RPMI media; final LPS concentration 5 ng/ml). The 0.5 ml additions of test compound and LPS are usually sufficient to mix the contents of the wells. Three control mixtures are run per experiment, with either LPS alone, solvent vehicle control, and/or additional media to adjust the final culture volume to 2.0 ml. The cell cultures are incubated for 16-18 hr at 37° C. in the presence of 5% CO2.
At the end of the incubation period, cells are harvested and transferred to 15 ml conical centrifuge tubes. After centrifugation for 10 min at 200×g, supernatants are harvested and transferred to 1.5 ml Eppendorf tubes. It may be noted that the cell pellet may be utilized for a biochemical evaluation of pre-IL-1β and/or mature IL-1β content in cytosol extracts by Western blotting or ELISA with pre-IL-1β specific antisera.
PBMC are isolated and prepared as described above. Media (1.0 ml) is first added to wells followed by 0.5 ml of the PBMC suspension. After a one hour incubation, plates are gently shaken and nonadherent cells aspirated from each well. Wells are then gently washed three times with 1.0 ml of media and final resuspended in 1.0 ml media. The enrichment for adherent cells generally yields 2.5-3.0×10^5 cells per well. The addition of test compounds, LPS, cell incubation conditions and processing of supernatants proceeds as described above.
Quantikine kits (R&D Systems) may be used for the measurement of mature IL-1β. Assays are performed according to the manufacturer's directions. Mature IL-1β levels of about 1-3 ng/ml in both PBMC and adherent mononuclear cell positive controls are observed. […]

Caspase-1 = molecular target: T1, Caspase-1 (Homo sapiens, UniProt P29466); experiment: Caspase-1 enzyme inhibition (Ki); assay type: biochemical
T1 sequence (P29466 120-297 limits assumed): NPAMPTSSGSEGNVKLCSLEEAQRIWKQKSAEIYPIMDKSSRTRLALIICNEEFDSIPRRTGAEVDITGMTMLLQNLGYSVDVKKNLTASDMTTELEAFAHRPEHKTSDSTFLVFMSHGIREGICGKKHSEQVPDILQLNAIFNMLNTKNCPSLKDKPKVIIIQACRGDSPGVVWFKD
T1 sequence (P29466 317-404 limits assumed): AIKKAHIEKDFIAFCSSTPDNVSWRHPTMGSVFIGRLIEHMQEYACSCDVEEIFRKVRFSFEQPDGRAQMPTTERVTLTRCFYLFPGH
In short: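 Ki obtained by fitting rate versus inhibitor concentration to the Morrison tight-binding equation for competitive inhibitors, with pNA release read at 405 nm at 37 °C. Substrate Suc-YVAD-pNA (80 μM final) added after 15 min enzyme–inhibitor preincubation in Tris pH 7.5 buffer with DTT and CHAPS.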

[3] = substrate Suc-YVAD-pNA 80 μM, 37° C., pH 7.5

Row | SMILES | IC50 [1] [µM] | Ki (Caspase-1) [nM] | Ki (Caspase-1; [3]) [nM] | IC50 [2] [nM]
1 | CC(=O)Nc1ccc(C(=O)N[C@H](C(=O)N2CCC[C@H]2C(=O)N[C@H](C=O)CC(=O)O)C(C)C)cc1 [Example 5a] (Ac-[4Abz]VPD-aldehyde) | < 2.5 | 10 to 1000 | < 10 | > 2000
2 | COc1ccc(C(=O)N[C@H](C(=O)N2CCC[C@H]2C(=O)N[C@H](C=O)CC(=O)O)C(C)C)cc1OCc1ccccc1 [Example 5aa] | < 2.5 | < 10 | < 10 | 500 to 1000
3 | CC(C)[C@H](NC(=O)Cc1ccccc1OCc1ccccc1)C(=O)N1CCC[C@H]1C(=O)N[C@H](C=O)CC(=O)O [Example 5ab] | 2.5 to 7.5 | 10 to 1000 | 10 to 1000 | 500 to 1000
4 | COc1c(C)cc(C(=O)N[C@H](C(=O)N2CCC[C@H]2C(=O)N[C@H](C=O)CC(=O)O)C(C)C)cc1C [Example 5ac] | < 2.5 | < 10 | < 10 | < 500
5 | CC(C)[C@H](NC(=O)c1ccc2ncccc2c1)C(=O)N1CCC[C@H]1C(=O)N[C@H](C=O)CC(=O)O [Example 5ad] | < 2.5 | < 10 | < 10 | < 500
6 | COc1ccc2cc([C@H](C)C(=O)N[C@H](C(=O)N3CCC[C@H]3C(=O)N[C@H](C=O)CC(=O)O)C(C)C)ccc2c1 [Example 5ag] | 2.5 to 7.5 | < 10 | < 10 | 500 to 1000
7 | CC(C)[C@H](NC(=O)c1ccc2c(c1)S(=O)(=O)c1ccccc1C2=O)C(=O)N1CCC[C@H]1C(=O)N[C@H](C=O)CC(=O)O [Example 5ai] | > 7.5 | < 10 | < 10 | < 500
8 | CC(C(=O)N[C@H](C(=O)N1CCC[C@H]1C(=O)N[C@H](C=O)CC(=O)O)C(C)C)c1ccc(C(=O)c2cccs2)cc1 (stereo partly drawn) [Example 5aj] | > 7.5 | 10 to 1000 | 10 to 1000 | 500 to 1000
9 | COc1cc(CC(=O)N[C@H](C(=O)N2CCC[C@H]2C(=O)N[C@H](C=O)CC(=O)O)C(C)C)ccc1OCc1ccccc1 [Example 5ak] | > 7.5 | 10 to 1000 | 10 to 1000 | 500 to 1000

Now from value to compound, other results behind:

Row | IC50 [1] [µM] | Ki (Caspase-1) [nM] | Ki (Caspase-1; [3]) [nM] | SMILES | IC50 [2] [nM]
10 | 2.5 to 7.5 | – | < 10 | CC(C)[C@H](NC(=O)c1cccc(Oc2ccccc2)c1)C(=O)N1CCC[C@H]1C(=O)N[C@H](C=O)CC(=O)O [Example 5ay] | 500 to 1000
11 | < 2.5 | – | < 10 | CC(C)[C@H](NC(=O)c1cccc(C(=O)c2ccccc2)c1)C(=O)N1CCC[C@H]1C(=O)N[C@H](C=O)CC(=O)O [Example 5az] | 500 to 1000
12 | < 2.5 | – | < 10 | CC(C)[C@H](NC(=O)c1cc2ccccc2[nH]1)C(=O)N1CCC[C@H]1C(=O)N[C@H](C=O)CC(=O)O [Example 5b] | 500 to 1000
13 | 2.5 to 7.5 | – | < 10 | CC(C)[C@H](NC(=O)c1ccc2c(c1)C(=O)c1ccccc1-2)C(=O)N1CCC[C@H]1C(=O)N[C@H](C=O)CC(=O)O [Example 5bb] | 500 to 1000
14 | 2.5 to 7.5 | – | < 10 | CC(C)[C@H](NC(=O)c1cccc2ccccc12)C(=O)N1CCC[C@H]1C(=O)N[C@H](C=O)CC(=O)O [Example 5d] | 500 to 1000
15 | < 2.5 | – | 10 to 1000 | CC(C)[C@H](NC(=O)c1ccccc1)C(=O)N1CCC[C@H]1C(=O)N[C@H](C=O)CC(=O)O [Example 5e] (Bz-Val-Pro-Asp-aldehyde) | 500 to 1000
16 | 2.5 to 7.5 | – | 10 to 1000 | CC(C)[C@H](NC(=O)c1ccc(O)cc1)C(=O)N1CCC[C@H]1C(=O)N[C@H](C=O)CC(=O)O [Example 5f] | 1000 to 2000
17 | > 7.5 | < 10 | < 10 | CC(C)[C@H](NC(=O)c1cccc2c1-c1ccccc1C2)C(=O)N1CCC[C@H]1C(=O)N[C@H](C=O)CC(=O)O [Example 5i] | 1000 to 2000
18 | > 7.5 | < 10 | < 10 | CC(C)[C@H](NC(=O)c1cccc2c1Cc1ccccc1-2)C(=O)N1CCC[C@H]1C(=O)N[C@H](C=O)CC(=O)O [Example 5j] | > 2000
19 | > 7.5 | 10 to 1000 | 10 to 1000 | CC(C)[C@H](NC(=O)c1ccccc1C(=O)c1ccc(F)cc1)C(=O)N1CCC[C@H]1C(=O)N[C@H](C=O)CC(=O)O [Example 5l] | < 500
20 | 2.5 to 7.5 | < 10 | < 10 | COc1cc(C(=O)N[C@H](C(=O)N2CCC[C@H]2C(=O)N[C@H](C=O)CC(=O)O)C(C)C)cc(OC)c1O [Example 5n] | 500 to 1000
21 | > 7.5 | 10 to 1000 | 10 to 1000 | CC(C)[C@H](NC(=O)c1ccc2c(c1)OCO2)C(=O)N1CCC[C@H]1C(=O)N[C@H](C=O)CC(=O)O [Example 5r] | > 2000
22 | > 7.5 | 10 to 1000 | 10 to 1000 | CC(C)[C@H](NC(=O)c1cnnc2ccccc12)C(=O)N1CCC[C@H]1C(=O)N[C@H](C=O)CC(=O)O [Example 5s] | 500 to 1000
